As usually defined, the IC90 is the point of the concentration-response curve where the effect stands at 90%.

The structures appear in SMILES notation. Activity calls are given as the source filed them. How the calls were made is not given here. A value given as a limit tells only on which side of the number the result lay.

In the first test the test system is M. tuberculosis log-phase growth, CFU enumeration. Put plainly: M. tuberculosis log-phase growth inhibition, dose response, dry powder samples (AID 651850).
Settings: not given
For `COc1ccc(CSc2nnc(-c3ccc(Cl)cc3)o2)nc1`, the IC90 is 16 µM.

Consider `c1ccc(CSc2nnc(C3CCCC3)o2)cc1`, for which the IC90 was 250 µM. Take `c1ccc(-c2nnc(SCCN3CCN(c4ccccc4)CC3)o2)cc1`: the concentration for an effect of 90% (IC90) was 62 µM. As to `c1ccc(-n2cc(CSc3nnc(C4CCC4)o3)nn2)cc1`, the IC90 is 62 µM. Same read-out and setting: for `Fc1ccc(-c2nnc(SCc3ccccn3)o2)cc1` the value was 16 µM. Same read-out and setting: for `O=S(Cc1cn(Cc2ccccc2)nn1)c1nnc(-c2ccc(Cl)cc2)o1` (stereo not drawn) the value was 62 µM; for `c1ccc(-n2cc(CSc3nnc(C4CCCC4)o3)nn2)cc1`, 62 µM; for `O=S(Cc1ccccc1)c1nnc(-c2ccccc2)o1` (stereo not drawn), below 31 µM.

On to `Fc1cccc(-c2nnc(SCc3ccccn3)o2)c1`, for which the IC90 was 31 µM. On the same count and under the same terms, for `c1ccc(CSc2nnc(-c3ccccc3)o2)cc1` the value was 62 µM. In the case of `Brc1cccc(-c2nnc(SCc3ccccn3)o2)c1`, the 90% effect concentration (IC90) was 62 µM. The same measure, in the same setting: for `Clc1ccc(-c2nnc(SCc3cn(Cc4ccccc4)nn3)o2)cc1` the value was 125 µM. On the same count and under the same terms, for `Fc1ccc(-c2nnc(SCc3cn(Cc4ccccc4)nn3)o2)cc1` the value was 62 µM; for `c1ccc(Cn2cc(CSc3nnc(C4CCCC4)o3)nn2)cc1`, 62 µM; for `c1ccc(-c2nnc(SCc3cscn3)o2)cc1`, 62 µM. Same read-out and setting: for `c1ccc(-c2nnc(SCc3ccccn3)o2)cc1` the value was below 31 µM; for `COc1cccc(-c2nnc(SCc3ccccn3)o2)c1`, 62 µM. As for `CC(C)c1nnc(SCc2ccccc2)o1`, the 90% effect concentration (IC90) was 125 µM.

Take `Brc1ccc(-c2nnc(SCc3ccccn3)o2)cc1`: the IC90 is 62 µM.

Tested on in the next test: not listed separately
The description is as above. Conditions: M. tuberculosis log-phase growth, CFU enumeration.
For the compound `Fc1ccc(Cn2cc(CSc3nnc(C4CCCC4)o3)nn2)cc1`, the result was inactive. Take `Fc1ccc(Cn2cc(CSc3nnc(-c4ccc(Cl)cc4)o3)nn2)cc1`: the result was inactive. Still for that read-out and setting: as for `Fc1ccc(-c2nnc(SCc3cn(-c4ccccc4)nn3)o2)cc1`, the entry is “inactive”; as for `c1ccc(Cn2cc(CSc3nnc(C4CCC4)o3)nn2)cc1`, “inactive”; as for `Clc1ccc(-c2nnc(SCc3cn(-c4ccccc4)nn3)o2)cc1`, “inactive”. Same read-out and setting: as for `Clc1ccc(-c2nnc(SCc3cn(Cc4ccccc4)nn3)o2)cc1`, the entry is “inactive”. For `Fc1ccc(Cn2cc(CSc3nnc(C4CCC4)o3)nn2)cc1`, the outcome was inactive. The same measure, in the same setting: as for `Fc1ccc(Cn2cc(CSc3nnc(-c4ccc(F)cc4)o3)nn2)cc1`, the entry is “inactive”; as for `c1ccc(Cn2cc(CSc3nnc(-c4ccccc4)o3)nn2)cc1`, “inactive”.
